From patent publication US8178091B2, “Compositions and methods for the treatment of respiratory disorders” (University of Washington, priority 2007, dated 2012)
“Also recorded” adds a separate entry of the source.

What was measured:
epithelial cells (A549) = assay: Fas-induced apoptosis, epithelial cells; type: cell-based, human; settings: A549, antibody 136 μg/ml with Fas ligand
Method: A: Normal human lung fibroblast or distal lung epithelial cells were serum-starved overnight and then incubated with indicated concentration of IGF-1R antibody or IGFBP-3 overnight. B: A549 cells were serum-starved and incubated with IGF-1R antibody (136 μg/ml) with or without the indicated concentration of Fas ligand. Apoptosis was measured by Cell Death ELISA-plus ELISA (Roche Applied Science) per the manufacturer's directions. All experiments were done in triplicate and repeated at least twice. Apoptosis index is defined as the ratio of experimental condition OD405 nm: control (media alone) OD405 nm.
Primary normal human lung fibroblasts (Clonetics, Cambrex Bioscience, Rockland, Me.), primary distal lung human epithelial cells (Clonetics) or A549 (American Type Culture Collection, Manassas, Va.) were seeded in a 96-well tissue culture plate (2×10^4 cells/well) overnight and serum-starved for 24 hours. […] After 48 hours, apoptosis was measured. To prevent detached cells from being aspirated, plates were centrifuged at 200×g for 10 minutes, and apoptosis was measured using the Cell Death Detection ELISA-plus System (Roche Applied Science, Penzberg, Germany), which detects cytosolic histone-complexed DNA fragments. […]

[1] = tested on: primary mouse lung fibroblasts; assay: migration assay (FluoroBlok transwell); type: cell-based, C57BL6 mice; settings: IGF-1 100 ng/ml; A12 40 μg/ml preincubation
Method: Mouse lung fibroblasts were plated FluoroBlok transwell filters overnight, then IGF-1 (100 ng/ml), serum free media (negative control), 10% serum (positive control) was added to lower chamber. Some cells were preincubated with the blocking antibody to IGF-1R (A12, 40 μg/ml) before the addition of IGF-1. Cells were allowed to migrate through membrane for 4 hours @ 37° C. Migrated cells were counted with Fluorescent microscope. Each experiments was done in triplicate and repeated at least three times. Average cell count ±SD are presented.
For migration assays, primary mouse lung fibroblasts (50,000 cells/well) were plated in serum-free medium overnight on Fluoroblok transwell filters (8 μm pores, HTS FluoroBlok™ 24-Multiwell Insert System, BD Bioscience, Bedford, Mass.) pre-coated with fibronectin (50 μg/ml). Fluoroblok microporous membranes are specifically designed to detect by fluorescence only cells below the surface membrane. IGF-1 (100 ng/ml), 10% FBS (positive control) or serum-free media (negative control) was added to lower chamber. In some experiments, cells were preincubated with the blocking antibody to IGF-1R (A12, 40 μg/ml), for 1 hour. After 4 hours of migration, filters were fixed with formaldehyde and stained with DAPI (4′6-Diamidine-2′-phenylindole dihydrochloride, Roche, Indianapolis, Ind.). Migrated cells were counted in three predesignated fields for each filter. All experiments were done in triplicate and repeated at least three times.

IGF-1R = settings: murine and human tissues; cited from earlier work

A12: Function blocking antibody to the human type 1 IGF receptor, gift from ImClone Systems
Fas-induced apoptosis of epithelial cells (epithelial cells (A549)): did not alter Fas-induced apoptosis
effect on IGF-1-induced migration [1]: inhibited; also recorded: abrogated the increased migration
IGF-1R signaling (IGF-1R): inhibits IGF-1R signaling
